Reference: patent publication EP0559625B1, “Esters of L-carnitine and acyl L-carnitine endowed with muscle relaxant activityselective on gastrointestinal tract and pharmaceutical compositions containing same” (Sigma-Tau Industrie Farmaceutiche Riunite S.p.A., priority 1992, dated 1993)

Key:
[1] = target: sites associated to calcium channels labeled by ^3H-Verapamil; assay: Binding to Ca++ channel sites labelled by 3H-Verapamil in rat brain; settings: rat brain cortex membranes; ^3H-Verapamil (10 µM), 20' at 37°C; read-out: IC50 Uptake sites of Ca^++ channels labelled with ^3H-Verapamil
Description: (§1) The "binding" of the tested compounds to the sites associated to calcium channels labeled by ^3H-Nitrendipine, ^3H-Verapamil and ^3H-Diltiazem has been assayed in rat brain according to the method of Schoemaker H. et al. Eur. J. Pharmacol. 111, 273 (1985) and of Reynolds I.J. et al. Eur. J. Pharmacol. 95, 319 (1983).
(§2) Brain cortices are removed from decollated male CrI: CD (SD) BR rats weighing 250-300 g.
(§3) The tissues were homogenized in Tris-HCl buffer and centrifuged at 50000 x g for 10 minutes. The pellet was washed twice through a fresh buffer suspension and centrifuged at 50000 x g for 10 minutes.
(§4) After suspension of the precipitate in the incubation buffer the compounds under examination were added to the medium, starting from a concentration 10^-5 M. Incubation conditions were: ^3H-Nitrendipine (0.5 nM) x 60' at 30°C; ^3H-Verapamil (10 µM) x 20' at 37°C; and ^3H-d-cis Diltiazem (4 nM) x 60' at 30°C. Final volume was 1 ml. Incubation was stopped by rapid filtration under vacuum through GF/B (0.1% […]) fiber filters which were washed with cold incubation buffer (3 x 3 ml) using the system of filtration Brandel Cell Harvester. Filters were put in 8 ml of Optifluor (Packard) and the radioactivity bound to the membranes trapped by fibers counted by liquid scintillation spectrometer TRI-CARB 1900 CA (Packard). The counting efficiency was about 50%.
(§5) The percentage inhibition of the specific ^3H-ligand binding to its respective receptors was calculated for each concentration (mean of three incubates).
(§6) The competition curve, the slope of the curve and IC50^± standard deviation values (drug concentration that reduces specific ^3H-ligand binding to its respective receptors by 50% of its maximum value) were calculated by using the "Allfit" program (De Lean A. et al., Am. J. Physiol. 235, E97, 1978) running on an IBM 55-SH.

mice = assay: Assessment of behaviour and mortality in mice (Irwin's method); type: in vivo; settings: for Death rate: dead/treated, 4 animals/dose; for Symptoms: n.e. = no effect, (*) = in connection with death rate only
Description: The assessment of normal behaviour in mice was carried out following S. Irwin's method, Psychopharmacologia 13, 222 (1968). This method allows alterations in some behavioural, neurophysiologic and neurovegetative parameters to be detected, which are directly observable by the researcher. The study was conducted using male CrI: (CD-I)(ICR)BR mice (Charles River - Italy) weighing 22-25 g, following oral administration of the compounds suspended in carboxymethylcellulose (0.5% by weight in H2O) to groups of 4 animals/dose.
The animals were continuously kept under observation for five hours following treatment and twice a day in the subsequent five days. Mortality was also observed during the overall test period. The initial dose was 1000 mg/kg per os; lower doses were administered in case of death or if the initial dose brought about an excessive response.

[2] = target: sites associated to calcium channels labeled by ^3H-Diltiazem; assay: Binding to Ca++ channel sites labelled by 3H-Diltiazem in rat brain; settings: rat brain cortex membranes; ^3H-d-cis Diltiazem 4 nM, 60' at 30°C; read-out: IC50 Uptake sites of Ca^++ channels labelled with ^3H-Diltiazem
Description: as §1, §2, §3, §4, §5, §6

[3] = target: sites associated to calcium channels labeled by ^3H-Nitrendipine; assay: Binding to Ca++ channel sites labelled by 3H-Nitrendipine in rat brain; settings: rat brain cortex membranes; ^3H-Nitrendipine 0.5 nM, 60' at 30°C; inactive at 10^-5 M not tested higher; read-out: IC50 Uptake sites of Ca^++ channels labelled with ^3H-Nitrendipine
Description: as §1, §2, §3, §4, §5, §6

Rat portal vein = assay: Rat portal vein: contractions evoked by high K+ concentrations; settings: at a concentration of 10 mg/ml
From the text: The effect of the compound on the contractions evoked by high K^+ concentrations in the rat portal vein has been tested according to Shetty S.S. et al., Europ. J. Pharm. 141, 485 (1989).

[4] = system: conscious spontaneously hypertensive rats (SHR); assay: Effect on blood pressure and heart rate in conscious SHR; type: in vivo; settings: oral 100 mg/kg, 1, 2 and 4 hours after administration
Description: The effect of the substance has been tested after oral administration of 100 mg/kg to conscious spontaneously hypertensive rats (SHR). No changes of blood pressure and heart rate were observed 1, 2 and 4 hours after the administration. The experimental procedure was run according to Yeer T.T. et al, Life Sciences 22, 359 (1978).

| SMILES | IC50 [1] [µM] | Death rate (mice; dose 1000 (mg/kg per os)) | Symptoms (mice; dose 1000 (mg/kg per os)) | IC50 [2] [µM] | IC50 [3] [µM] | Death rate (mice; dose 300 (mg/kg per os)) | Symptoms (mice; dose 300 (mg/kg per os)) | Death rate (mice; dose 600 (mg/kg per os)) | Symptoms (mice; dose 600 (mg/kg per os)) | Death rate (mice; dose 100 (mg/kg per os)) | Symptoms (mice; dose 100 (mg/kg per os)) | effect on the contractions evoked by high K^+ concentrations in the rat portal vein (Rat portal vein) | changes of blood pressure [4] | changes of heart rate [4] |
| --- | --- | --- | --- | --- | --- | --- | --- | --- | --- | --- | --- | --- | --- | --- |
| CC(C)COC(=O)C[C@H](C[N+](C)(C)C)OC(=O)C(C)C [ST 305] | 3.5 | 0/4 | n.e. | > 10 | 33 |  |  |  |  |  |  |  |  |  |
| CCCCOC(=O)C[C@H](C[N+](C)(C)C)OC(=O)CC(C)C [ST 683] | 2.4 | 4/4 | convulsions (*) | 15 | > 10 | 0/4 | n.e. | 2/4 | convulsions (*) |  |  |  |  |  |
| CC(C)COC(=O)C[C@H](C[N+](C)(C)C)OC(=O)CC(C)C [ST 684] | 1.6 | 0/4 | n.e. | 7.8 | > 10 |  |  |  |  |  |  |  |  |  |
| CCCCCCCOC(=O)C[C@H](C[N+](C)(C)C)OC(=O)CC(C)C [ST 697] | 1.5 | 4/4 | convulsions (*) | 0.5 | > 10 | 1/4 | convulsions (*) | 2/4 | convulsions (*) | 0/4 | n.e. |  |  |  |
| CCCCCCCCCCCOC(=O)C[C@H](C[N+](C)(C)C)OC(=O)C(C)C [ST 712, Isobutyryl L-carnitine undecyl ester chloride] | 2.8 | 0/4 | n.e. | 1.2 | 5.3 |  |  |  |  |  |  |  |  |  |
| CCCCCCCOC(=O)C[C@H](C[N+](C)(C)C)OC(=O)C(C)C [ST 713, isobutyryl L-carnitine heptyl ester chloride] | 1.2 | 4/4 | convulsions (*) | 1.3 | > 10 | 2/4 | convulsions (*) | 3/4 | convulsions (*) | 0/4 | n.e. |  |  |  |
| CCCCCCCCCCCOC(=O)C[C@H](C[N+](C)(C)C)OC(=O)CC(C)C [ST 722, isovaleryl L-carnitine undecyl ester chloride] | 0.38 | 0/4 | salivation, diarrhea | 1.4 | 1.6 |  |  |  |  |  |  | inactive | No changes | No changes |
| CCCCCCCOC(=O)C[C@H](C[N+](C)(C)C)OC(C)=O [ST 904, acetyl L-carnitine heptyl ester chloride] | 3.2 | 4/4 | convulsions (*) | > 10 | > 10 | 0/4 | n.e. | 2/4 | convulsions (*) |  |  |  |  |  |
